Measured values published in patent publication EP1932852B1, “Novel taxane related peptides and uses thereof” (Campiani, Giuseppe, priority 2006, dated 2008).

What was measured:
Bcl2/Nur77 complex = biological target: T1, Bcl2/Nur77 complex (Homo sapiens, UniProt P10415); assay: Co-immunoprecipitation of Nur77 with Bcl-2 in the presence of PTX; assay type: binding; conditions: whole cell lysates from A2780, PTX 10 µM, 2 h at 4 °C
T1 construct: endogenous in cells; host or cells: A2780 (human ovarian cancer) whole cell lysate
Procedure: (§1) Cells, harvested in cold phosphate-buffered saline, were extracted for 30 min at 4 °C in lysis buffer (50 mM Tris-HCl, pH 7.4, 150 mM NaCl, 1% NP-40) containing 1mM DTT, protease inhibitor cocktail (Roche) and phosphatase inhibitors (50 mM NaF, 0.2 mM Na3VO4). Mitochondria isolation was performed as previously described (Ferlini et al., 2003). After centrifugation, supernatants (300 µg from total lysates and 100 µg from mitochondrial extracts) were immunoprecipitated at 4 °C overnight in lysis buffer by adding protein A/G plus-agarose beads (Santa Cruz Biotechnology) after 2 h of incubation with 2 µg of the following antibodies: anti-Bcl-2 (N19, Santa Cruz Biotechnology), anti-Bcl-2 (clone 124, Dako), anti-Bcl-2 BH3 domain (Abgent), anti-Nur77 (Imgenex), anti-β-tubulin (H235, Santa Cruz Biotechnology), anti-class III β-tubulin polyclonal antibody (Covance) and isotype-matched non-immune IgG (Sigma) as control. […]
The significant similarity between the binding sites of the two PTX target proteins resulted from molecular modeling studies prompted the authors to investigate the possibility that PTX is a peptidomimetic compound. […] In order to assess this hypothesis, recombinant histidine-tagged Nur77 was purified and the interaction with in vitro produced Bcl-2 and Bcl-2Δ labeled with ^35S-methionine was analyzed. […]

Bcl-2 = assay: Western blot of Bcl-2 in mitochondrial extracts (mobility shift); assay type: cell-based, human; conditions: A2780wt treated 24h with PTX 1 µM
Procedure: as §1
It has already been shown that Bcl-2 is phosphorylated following exposure to PTX and that phosphorylation occurs in the disordered loop of Bcl-2 (Haldar et al., 1996; Fang et al., 1998). In order to investigate if Nur77, like PTX, is able to induce Bcl-2 mobility shifts, A2780 and TC1 cell lines overexpressing Nur77 (thereafter referred to as A2780Nur77 and TC1Nur77) were established and Bcl-2 status was analysed. […]

[1] = tested on: mitochondria freshly isolated from TC1-Bcl-2Δ cells; assay: Flow cytometric assessment of Δψm in freshly isolated mitochondria (Rhodamine 123); assay type: cell-based, human; conditions: PTX 10 µM, 60 min; mitochondria from TC1-Bcl-2Δ; without treatment 14%
Procedure: (§2) Cell culture procedures and cell lines have been elsewhere described (Ferlini et al., 2003). Mitochondria were freshly isolated and mitochondrial transmembrane potential Δψm was assessed as previously described (Ferlini et al., 1995), using Rhodamine 123 (Molecular Probes) and a Facscan flow cytometer (Becton Dickinson).
(§3) Here, they used the human ovary A2780 cancer cell line and its counterpart TC1 (Ferlini et al., 2003) with acquired PTX-resistance. […] Since the homology between the Bcl-2 and Bcl-xL is high, with the exception of the loop domain, TC1 cells were stably transfected with a construct in which the loop domain of Bcl-2 (aa 35-91) was deleted and replaced with a linker sequence of four alanine residues, as previously described by Chang et al. (Chang et al., 1997). These cells are thereafter referred to as TC1 Bcl-2Δ. Mitochondria were freshly isolated from these cells and were treated with PTX (10 µM). This concentration has a clinical relevance since it corresponds to the intracellular concentration achievable in patients. (Andre et al., 2000).
(§4) The status of mitochondrial transmembrane potential (Δψm) was then monitored using the cationic fluorochrome Rhodamine 123 and flow cytometry. Results of these experiments are depicted in Fig. 1B. […] In fact, as reported in Fig. 1B the percentage of mitochondria with full leakage of the Δψm pass from 18% to 78%. […] In TC1-Bcl-2 cells, the sensitivity to PTX treatment was restored and again the vast majority of treated mitochondria were able to open the PTPC upon PTX treatment and dissipate the Δψm (from 8% to 82%). […] Taken together, these findings indicate that PTX is able to convert Bcl-2 in a factor proficient to activate the opening of PTPC and that such activity requires the presence of Bcl-2 loop domain, since it is not longer detectable in mitochondria from TC1-Bcl-2Δ cells.

[2] = tested on: mitochondria freshly isolated from TC1 cells; assay: as above; assay type: cell-based, human; conditions: PTX 10 µM, 60 min; mitochondria from TC1 (undetectable Bcl-2); without treatment 16%
Procedure: as §2, §3, §4

[3] = tested on: mitochondria freshly isolated from TC1-Bcl-2 cells; assay: as above; assay type: cell-based, human; conditions: PTX 10 µM, 60 min; mitochondria from TC1-Bcl-2; without treatment 8%
Procedure: as §2, §3, §4

[4] = tested on: mitochondria freshly isolated from A2780wt cells; assay: as above; assay type: cell-based, human; conditions: PTX 10 µM, 60 min, without treatment 18%
Procedure: as §2, §3, §4

T1 sequence (P10415 whole entry, one chain of several): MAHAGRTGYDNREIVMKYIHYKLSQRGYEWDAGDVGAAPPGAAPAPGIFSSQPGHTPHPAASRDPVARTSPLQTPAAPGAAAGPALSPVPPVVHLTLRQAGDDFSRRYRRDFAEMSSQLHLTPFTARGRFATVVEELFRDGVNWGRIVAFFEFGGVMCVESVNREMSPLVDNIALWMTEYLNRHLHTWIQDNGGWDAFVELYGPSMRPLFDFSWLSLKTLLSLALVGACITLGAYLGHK

CC(=O)O[C@H]1C(=O)[C@@]2(C)[C@H]([C@H](OC(=O)c3ccccc3)[C@]3(O)C[C@H](OC(=O)[C@H](O)[C@@H](NC(=O)c4ccccc4)c4ccccc4)C(C)=C1C3(C)C)[C@]1(OC(C)=O)CO[C@@H]1C[C@@H]2O [PTX, paclitaxel]
displacement of Nur77 from Bcl-2 (Bcl2/Nur77 complex): able to displace Nur77 from Bcl-2
slow mobility band of Bcl-2 (Bcl-2): slow mobility band was detectable
mitochondria with changed Δψm status [1]: 20%
number of mitochondria with the leakage of Δψm [2]: 26%
mitochondria that open the PTPC and dissipate the Δψm [3]: 82%
percentage of mitochondria with full leakage of the Δψm [4]: 78%
